Experimental data taken from patent US7417156B2, “Orally active, antimalarial, anticancer, artemisinin-derived trioxane dimers” (Johns Hopkins University, priority 2002, dated 2008).

Key:
786-0 = assay: NCI 60 cell line panel screen (SRB); format: cell-based, human
SK-MEL-2 = assay: NCI 60 cell line panel screen (SRB); format: cell-based, human
TK-10 = assay: NCI 60 cell line panel screen (SRB); format: cell-based, human
M14 = assay: NCI 60 cell line panel screen (SRB); format: cell-based, human; details: M-14 (Melanoma); TGI: PG=0
60 cell line panel = format: cell-based
NCI-H322M = format: cell-based
SK-MEL-28 = assay: NCI 60 cell line panel screen (SRB); format: cell-based, human
PC-3 = assay: NCI 60 cell line panel screen (SRB); format: cell-based, human
HCT-15 = assay: NCI 60 cell line panel screen (SRB); format: cell-based, human
KM12 = assay: NCI 60 cell line panel screen (SRB); format: cell-based, human
HS 578T = assay: NCI 60 cell line panel screen (SRB); format: cell-based, human
HOP-92 = assay: NCI 60 cell line panel screen (SRB); format: cell-based, human
MDA-MB-435 = assay: NCI 60 cell line panel screen (SRB); format: cell-based, human
UO-31 = assay: NCI 60 cell line panel screen (SRB); format: cell-based, human
SNB-75 = assay: NCI 60 cell line panel screen (SRB); format: cell-based, human; details: SNB-75 (CNS Cancer)
NCI-H460 = assay: NCI 60 cell line panel screen (SRB); format: cell-based, human
U251 = assay: NCI 60 cell line panel screen (SRB); format: cell-based, human; details: U251 (CNS Cancer)
RPMI-8226 = assay: NCI 60 cell line panel screen (SRB); format: cell-based, human
OVCAR-3 = assay: NCI 60 cell line panel screen (SRB); format: cell-based, human
ACHN = assay: NCI 60 cell line panel screen (SRB); format: cell-based, human
HCT-116 = assay: NCI 60 cell line panel screen (SRB); format: cell-based, human
MALME-3M = assay: NCI 60 cell line panel screen (SRB); format: cell-based, human
NCI-H23 = assay: NCI 60 cell line panel screen (SRB); format: cell-based, human
OVCAR-5 = assay: NCI 60 cell line panel screen (SRB); format: cell-based, human
IGROVI = assay: NCI 60 cell line panel screen (SRB); format: cell-based, human
[1] = mean value over the 60 cell line panel

Compound: C[C@@H]1CC[C@H]2[C@@H](C)C(CC(O)(COC(=O)CCC(=O)O)CC3OC4O[C@]5(C)CC[C@H]6[C@H](C)CC[C@@H]([C@H]3C)C46OO5)OC3O[C@]4(C)CCC1C32OO4 (stereo partly drawn) [Compound 9, tertiary alcohol primary succinate ester]
- Log10LC50 (786-0; 786-0 (Renal Cancer), LC50: PG=−50): >−4.30 log10M
- Log10GI50 (786-0; Renal Cancer, 786-0): <−8.30
- Log10GI50 (SK-MEL-2; Melanoma, SK-MEL-2): −4.88
- Log10LC50 (SK-MEL-2; SK-MEL2 (Melanoma), LC50: PG=−50): >−4.30 log10M
- Log10TGI50 (SK-MEL-2; SK-MEL-2 (Melanoma), TGI: PG=0): >−4.30 log10M
- Log10GI50 (TK-10; Renal Cancer, TK-10): <−8.30
- Log10LC50 (TK-10; TK-10 (Renal Cancer), LC50: PG=−50): >−4.30 log10M
- Log10TGI50 (TK-10; TK-10 (Renal Cancer), TGI: PG=0): −4.60 log10M
- Log10TGI50 (M14): >−4.30 log10M
- Log10GI50 Delta (60 cell line panel): 1.28
- Log10GI50 Range (60 cell line panel): 3.94
- Log10LC50 Delta (60 cell line panel; 60 cell line panel): 0.29
- Log10LC50 Range (60 cell line panel; 60 cell line panel): 0.30
- Log10TGI50 Delta (60 cell line panel; 60 cell line panel): 3.58
- Log10TGI50 Range (60 cell line panel; 60 cell line panel): 4.00
- growth inhibition in words (60 cell line panel; colon cancer KM12, ovarian cancer OVCAR 3, breast cancer MDA-MB-435): selectively and strong inhibitory
- Log10GI50 MG MID (60 cell line panel; mean over panel): −7.02
- Log10LC50 MG MID (60 cell line panel; [1]): −4.31 log10M
- Log10TGI50 MG MID (60 cell line panel; [1]): −4.72 log10M
- Log10TGI50 (NCI-H322M; NCI-H322M (Non-Small Cell Lung Cancer), TGI: PG=0): >−4.30 log10M
- Log10GI50 (NCI-H322M; Non-Small Cell Lung Cancer, NCI-H322M): −5.07
- Log10GI50 (SK-MEL-28; Melanoma, SK-MEL-28): <−8.30
- Log10LC50 (SK-MEL-28; SK-MEL-28 (Melanoma), LC50: PG=−50): >−4.30 log10M
- Log10TGI50 (SK-MEL-28; SK-MEL-28 (Melanoma), TGI: PG=0): >−4.30 log10M
- Log10LC50 (PC-3; PC-3 (Prostate Cancer), LC50: PG=−50): >−4.30 log10M
- Log10TGI50 (PC-3; PC-3 (Prostate Cancer), TGI: PG=0): >−4.30 log10M
- Log10GI50 (PC-3; Prostate Cancer, PC-3): <−8.30
- Log10GI50 (HCT-15; Colon Cancer, HCT-15): <−8.30
- Log10LC50 (HCT-15; HCT-15 (Colon Cancer), LC50: PG=−50): >−4.30 log10M
- Log10TGI50 (HCT-15; HCT-15 (Colon Cancer), TGI: PG=0): −5.01 log10M
- Log10GI50 (KM12; Colon Cancer, KM12): <−8.30
- Log10LC50 (KM12; KM12 (Colon Cancer), LC50: PG=−50): −4.36 log10M
- Log10TGI50 (KM12; KM12 (Colon Cancer), TGI: PG=0): <−8.30 log10M
- Log10GI50 (HS 578T; Breast Cancer, HS 578T): −4.36
- Log10LC50 (HS 578T; HS 578T (Breast Cancer), LC50: PG=−50): >−4.30 log10M
- Log10TGI50 (HS 578T; HS 578T (Breast Cancer), TGI: PG=0): >−4.30 log10M
- Log10LC50 (HOP-92; HOP-92 (Non-Small Cell Lung Cancer), LC50: PG=−50): >−4.30 log10M
- Log10TGI50 (HOP-92; HOP-92 (Non-Small Cell Lung Cancer), TGI: PG=0): >−4.30 log10M
- Log10GI50 (HOP-92; Non-Small Cell Lung Cancer, HOP-92): <−8.30
- Log10GI50 (MDA-MB-435; Breast Cancer, MDA-MB-435): <−8.30
- Log10LC50 (MDA-MB-435; MDA-MB-435 (Breast Cancer), LC50: PG=−50): >−4.30 log10M
- Log10TGI50 (MDA-MB-435; MDA-MB-435 (Breast Cancer), TGI: PG=0): >−4.30 log10M
- Log10GI50 (UO-31; Renal Cancer, UO-31): −5.05
- Log10LC50 (UO-31; UO-31 (Renal Cancer), LC50: PG=−50): >−4.30 log10M
- Log10TGI50 (UO-31; UO-31 (Renal Cancer), TGI: PG=0): >−4.30 log10M
- Log10LC50 (SNB-75; LC50: PG=−50): >−4.30 log10M
- Log10TGI50 (SNB-75; TGI: PG=0): >−4.30 log10M
- Log10LC50 (NCI-H460; NCI-H460 (Non-Small Cell Lung Cancer), LC50: PG=−50): >−4.30 log10M
- Log10TGI50 (NCI-H460; NCI-H460 (Non-Small Cell Lung Cancer), TGI: PG=0): >−4.30 log10M
- Log10GI50 (NCI-H460; Non-Small Cell Lung Cancer, NCI-H460): <−8.30
- Log10LC50 (U251; LC50: PG=−50): >−4.30 log10M
- Log10TGI50 (U251; TGI: PG=0): −4.75 log10M
- Log10GI50 (RPMI-8226; Leukemia, RPMI-8226): <−8.30
- Log10LC50 (RPMI-8226; RPMI-8226 (Leukemia), LC50: PG=−50): >−4.30 log10M
- Log10TGI50 (RPMI-8226; RPMI-8226 (Leukemia), TGI: PG=0): >−4.30 log10M
- Log10LC50 (OVCAR-3; OVCAR-3 (Ovarian Cancer), LC50: PG=−50): >−4.30 log10M
- Log10TGI50 (OVCAR-3; OVCAR-3 (Ovarian Cancer), TGI: PG=0): <−8.30 log10M
- Log10GI50 (OVCAR-3; Ovarian Cancer, OVCAR-3): <−8.30
- Log10LC50 (ACHN; ACHN (Renal Cancer), LC50: PG=−50): >−4.30 log10M
- Log10TGI50 (ACHN; ACHN (Renal Cancer), TGI: PG=0): −4.74 log10M
- Log10GI50 (ACHN; Renal Cancer, ACHN): −6.67
- Log10GI50 (HCT-116; Colon Cancer, HCT-116): <−8.30
- Log10LC50 (HCT-116; HCT-116 (Colon Cancer), LC50: PG=−50): >−4.30 log10M
- Log10TGI50 (HCT-116; HCT-116 (Colon Cancer), TGI: PG=0): >−4.30 log10M
- Log10LC50 (MALME-3M; MALME-3M (Melanoma), LC50: PG=−50): >−4.30 log10M
- Log10TGI50 (MALME-3M; MALME-3M (Melanoma), TGI: PG=0): −5.14 log10M
- Log10GI50 (MALME-3M; Melanoma, MALME-3M): <−8.30
- Log10LC50 (NCI-H23; NCI-H23 (Non-Small Cell Lung Cancer), LC50: PG=−50): >−4.30 log10M
- Log10TGI50 (NCI-H23; NCI-H23 (Non-Small Cell Lung Cancer), TGI: PG=0): −4.65 log10M
- Log10GI50 (NCI-H23; Non-Small Cell Lung Cancer, NCI-H23): <−8.30
- Log10LC50 (OVCAR-5; OVCAR-5 (Ovarian Cancer), LC50: PG=−50): >−4.30 log10M
- Log10GI50 (OVCAR-5; Ovarian Cancer, OVCAR-5): <−8.30
- Log10LC50 (IGROVI; IGROVI (Ovarian Cancer), LC50: PG=−50): >−4.30 log10M
- Log10TGI50 (IGROVI; IGROVI (Ovarian Cancer), TGI: PG=0): >−4.30 log10M
- Log10GI50 (IGROVI; Ovarian Cancer, IGROVI): −4.97
